The conditions of this series: 100 kPa, Liquid, Vibrating tube method.

± gives the expanded uncertainty stated by the source.

As a reminder, the mass density is mass per unit of volume. With `CO` [methanol], the mass density by setting is: (293.15 K) 791.41 ± 1.5 kg/m3; (298.15 K) 786.65 ± 1.5 kg/m3; (303.15 K) 781.85 ± 1.5 kg/m3; (308.15 K) 776.95 ± 1.5 kg/m3; (313.15 K) 771.97 ± 1.5 kg/m3.
`CCO` [ethanol]: the mass density runs as follows: (293.15 K) 789.48 ± 1.5 kg/m3; (298.15 K) 785.12 ± 1.5 kg/m3; (303.15 K) 780.86 ± 1.5 kg/m3; (308.15 K) 776.48 ± 1.5 kg/m3; (313.15 K) 772.17 ± 1.5 kg/m3; (318.15 K) 767.6 ± 1.5 kg/m3. Further, the mass density (323.15 K) amounted to 763.22 ± 1.5 kg/m3.
Regarding `CCCO` [propan-1-ol], the mass density is 803.52 ± 1.5 kg/m3 (293.15 K); 799.52 ± 1.5 kg/m3 (298.15 K); 795.5 ± 1.5 kg/m3 (303.15 K); 791.43 ± 1.5 kg/m3 (308.15 K); 787.31 ± 1.5 kg/m3 (313.15 K); 783.11 ± 1.5 kg/m3 (318.15 K). For the same molecule, for the setting “323.15 K”, the mass density was 778.79 ± 1.5 kg/m3.
